The assay in a line: Inhibition of viral neuraminidase after 20 mins by fluorescence assay.
The term IC50 denotes the concentration that inhibits the measured activity by half. High values mean a need for much substance, low ones inhibition by little substance. Take `COc1cc(-c2ccc(O)cc2)c(OC)c(O)c1C1=CC(=O)OC1CC(=O)O` (stereo unspecified) [TERPHENOLIDE]: half-maximal inhibition (IC50) required 5.79 µM.
Next, `CO[C@]12OC[C@@H](O)c3c(C)ccc(c31)C1=C(C2=O)C(C)(C)CCC1` (racemic): more than 30 µM; `COc1cc(-c2ccccc2)c(OC)c(O)c1-c1ccc(O)cc1`: 4.34 µM.
As for `CCOC(=O)C1=C[C@@H](OC(CC)CC)[C@H](NC(C)=O)[C@@H](N)C1` [OSELTAMIVIR], the half-maximal inhibitory concentration (IC50) was 0.14 µM.
For the compound `COc1c(-c2ccc(O)cc2)cc(OC)c2c1oc1cc(O)c(O)cc12` [CANDIDUSIN A], the IC50 is more than 30 µM.
The figure for `CO[C@@H]1CO[C@]2(OC)C(=O)C3=C(CCCC3(C)C)c3ccc(C)c1c32` (racemic) is more than 30 µM.
Next, `COc1cc(-c2ccc(O)cc2)c(OC)c(O)c1-c1ccc(O)cc1` [TERPHENYLLIN]: more than 30 µM; `COc1ccc(-c2cc(OC)c3c(oc4cc(O)c(O)cc43)c2OC)cc1` [CANDIDUSIN C]: more than 30 µM.
Next, `COc1c(-c2ccccc2)cc(O)c(-c2ccc(O)cc2)c1O`: more than 30 µM; `COc1c(-c2ccc(O)cc2)cc(O)c(-c2ccc(O)cc2)c1O`: more than 30 µM; `COc1cc(-c2ccc(O)cc2)c(OC)c(O)c1-c1ccc(O)c(O)c1`: 9.17 µM.
Compound `COc1cc(-c2ccccc2)c(OC)c(O)c1-c1ccc(O)c(O)c1` showed a concentration for half-maximal inhibition (IC50) of more than 30 µM.
`C=C[C@@]1(C)CC[C@H]2C(=C[C@H](O)[C@H]3C(C)(C)CC[C@@H](O)[C@]23C)[C@H]1O` (relative stereo): the IC50 is more than 30 µM.
Next, `COc1cc2oc3c(OC)c(-c4ccc(O)cc4)cc(OC)c3c2cc1OC`: more than 30 µM; `C=Cc1c(C)ccc2c1C(=O)[C@H](O)[C@H]1C(C)(C)CC[C@@H](O)[C@]21C` [ASPERGILOID C]: more than 30 µM.
The figure for `COc1c(-c2ccccc2)cc(OC)c2c1oc1cc(O)c(O)cc12` is 9.05 µM.

(Values after ChEMBL document CHEMBL1949607, “p-Terphenyl and diterpenoid metabolites from endophytic Aspergillus sp. YXf3” (J Nat Prod, 2012).)
